Reference: US12268687B2, “Compounds and uses thereof” (JANSSEN PHARMACEUTICA NV, priority 2020, dated 2025)
Like-named read-outs stand apart in the source and are kept apart here.

Experiments:
SCD5 = SCD5 (Homo sapiens (Human), UniProt Q86SK9); test: Growth inhibition of yeast strain expressing human SCD5 as the sole desaturase; type: cell-based
SCD1 = SCD1 (Homo sapiens (Human), UniProt O00767); test: Growth inhibition of yeast strain expressing human SCD1 as the sole desaturase; type: cell-based
Chain of SCD1 (O00767 whole entry): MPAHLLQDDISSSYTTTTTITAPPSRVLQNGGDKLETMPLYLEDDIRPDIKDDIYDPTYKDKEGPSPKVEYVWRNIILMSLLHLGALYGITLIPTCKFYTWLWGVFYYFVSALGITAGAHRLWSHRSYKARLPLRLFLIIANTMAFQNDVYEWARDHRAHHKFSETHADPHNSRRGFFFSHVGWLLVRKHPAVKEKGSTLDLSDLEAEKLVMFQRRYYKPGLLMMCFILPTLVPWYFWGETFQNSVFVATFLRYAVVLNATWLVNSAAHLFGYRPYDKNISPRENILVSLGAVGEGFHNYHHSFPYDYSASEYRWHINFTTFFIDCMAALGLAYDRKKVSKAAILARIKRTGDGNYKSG

[1] = ole1Δ yeast with human SCD5 plasmid, OD600 growth read at 40 h, top concentration 33.3 μM per method
[2] = ole1Δ yeast with human SCD1 plasmid, OD600 growth read at 40 h, top concentration 33.3 μM per method

Chain of SCD5 (Q86SK9 whole entry): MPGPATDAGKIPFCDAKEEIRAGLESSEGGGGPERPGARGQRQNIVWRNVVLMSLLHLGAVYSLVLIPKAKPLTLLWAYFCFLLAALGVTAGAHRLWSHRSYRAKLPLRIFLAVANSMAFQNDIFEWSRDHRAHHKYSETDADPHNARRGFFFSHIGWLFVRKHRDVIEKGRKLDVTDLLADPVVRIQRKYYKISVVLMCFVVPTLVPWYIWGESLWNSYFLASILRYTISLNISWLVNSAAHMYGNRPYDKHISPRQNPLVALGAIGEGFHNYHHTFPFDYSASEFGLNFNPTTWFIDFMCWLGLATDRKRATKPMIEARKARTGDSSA

IC50 (SCD5; [1])	IC50 (SCD1; [2])	Molecule	IC50 (SCD5)	IC50 (SCD1)
10 nM	450 nM	6-(3-(4-(3,5-difluorobenzyl)piperidin-1-yl)-1,2,4-oxadiazol-5-yl)-2-methylpyridazin-3(2H)-one [Compound 115]		
4220 nM	14400 nM	Cn1cc(NC(=O)N2CCC(Cc3cc(F)cc(F)c3)CC2)ccc1=O [Compound 9]		
		Cn1nc(NC(=O)N2CCC(Cc3cc(F)cc(F)c3)CC2)ccc1=O [Compound 51, 4-(3,5-difluorobenzyl)-N-(1-methyl-6-oxo-1,6-dihydropyridazin-3-yl)piperidine-1-carboxamide]	60 nM	680 nM
740 nM	910 nM	Cn1nc(NC(=O)N2CCC(Oc3cccc(Cl)c3F)CC2)ccc1=O [Compound 77, 4-(3-chloro-2-fluorophenoxy)-N-(1-methyl-6-oxo-1,6-dihydropyridazin-3-yl)piperidine-1-carboxamide]		
10 nM	170 nM	Cn1nc(NC(=O)N2CCC(Oc3cccc(F)c3Cl)CC2)ccc1=O [Compound 78, 4-(2-Chloro-3-fluorophenoxy)-N-(1-methyl-6-oxo-1,6-dihydropyridazin-3-yl)piperidine-1-carboxamide]		
> 45000 nM	> 45000 nM	Cn1nc(NC(=O)C2CCN(Cc3cccc(Cl)c3)CC2)ccc1=O [Compound 136, 1-(3-chlorobenzyl)-N-(1-methyl-6-oxo-1,6-dihydropyridazin-3-yl)piperidine-4-carboxamide]		
